The record followed here is PMC3553074 (PLoS ONE, 2013).

Molecules are shown by their SMILES.

In the test the target is Ft-MglA/Ft-SspA complex (Francisella tularensis, UniProt Q5NFG1+Q5NHJ6).
Chain of Ft-MglA/Ft-SspA complex (Q5NFG1 1-205): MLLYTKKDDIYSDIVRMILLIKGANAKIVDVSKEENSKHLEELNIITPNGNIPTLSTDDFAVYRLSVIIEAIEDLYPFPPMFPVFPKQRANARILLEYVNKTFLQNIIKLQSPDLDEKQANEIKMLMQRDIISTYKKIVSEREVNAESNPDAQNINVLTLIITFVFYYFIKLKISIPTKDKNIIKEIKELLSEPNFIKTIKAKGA
Chain of Ft-MglA/Ft-SspA complex (Q5NHJ6 1-210): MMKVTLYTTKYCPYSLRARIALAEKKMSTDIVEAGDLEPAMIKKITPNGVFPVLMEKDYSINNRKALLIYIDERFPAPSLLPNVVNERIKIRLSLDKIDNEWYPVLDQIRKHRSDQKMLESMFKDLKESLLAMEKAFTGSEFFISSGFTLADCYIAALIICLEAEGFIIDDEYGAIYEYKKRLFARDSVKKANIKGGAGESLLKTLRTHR

With `CCN(CC)CCCC(C)Nc1c2ccc(Cl)cc2nc2ccc(OC)cc12` (stereo not shown) [quinacrine], the “ΔTm (Tm1)” value was 24.0 °C.
